The source of these data is publication PMC7714071, “Interaction of amyloid beta with humanin and acetylcholinesterase is modulated by ATP” (FEBS Open Bio, 2020).

The subject of one experiment is Aβ40. Particulars: cited from earlier work. From the text: Almost all types of cells produce amyloid beta (Aβ), a peptide well recognized for its role in the development and progression of different stages of Alzheimer's disease (AD). The Aβ peptide is ~ 4 kDa and derived from the sequential processing of the higher molecular weight amyloid precursor protein by two membrane‐bound endoproteases, β‐ and γ‐secretase. Different C‐terminal Aβ heterogeneity results from processing by γ‐secretase, where Aβ40 represents the most abundant isoform (~ 90%) as compared to Aβ42 (~ 10%). Self‐assembled Aβ40/42 peptides into amyloid fib ... || Humanin (HN) is a secreted 21‐ to 24‐amino acid mitochondrial‐derived peptide. Certain amino acid residues in HN have been identified to be involved in different functions, including binding to Aβ [55, 56]. […] HN was identified previously as a binding partner of Aβ, likely modulating its aggregation pathways and counteracting its deleterious effects. […] The specific epitopes at the binding interface between HN and Aβ40 were identified, by proteolytic epitope excision and extraction in addition to affinity–mass spectrometric data analysis, to be HN (5–15) and Aβ (17–28). […] Inhibiting the 17–28 region of Aβ reduced aggregation of the neurotoxic amyloid fibrils and related cytotoxicity in SH‐SY5Y, a human neuroblastoma cell ... || (+ 1 further places)

For the next experiment, the system named is Aβ42. Put plainly: ELISA, binding of biotinylated-HN to immobilised Aβ42. Particulars: Aβ 100 nM on wells, biotinylated-HN 300 nM, increasing HS; three independent assays; Fig. 2B. How it is done:
ELISAs were carried out as we previously reported. Nunc MaxiSorp 96‐well flat bottom plate (Thermo Fisher) wells were coated with samples as indicated. The plates were incubated overnight at 4 °C on a shaker to allow binding of the samples to the plate wells. After the incubation, the wells were washed 4× with TBST, filled with 400 µL blocking buffer (110 mM KCl, 5 mM NaHCO3, 5 mM MgCl2, 1 mM EGTA, 0.1 mM CaCl2, 20 mM HEPES, 1% BSA, pH 7.4), and incubated with shaking overnight at 4 °C. The wells were then washed 4× with TBST, and 100 µL of sample at the desired concentration was added to each well and incubated with shaking overnight at 4 °C. TBST was then used to wash the wells 4× before proceeding in one of two ways: (a) biotinylated samples were analyzed by adding 100 µL streptavidin–HRP conjugate in TBST (1 : 2500 dilution) to the samples followed by incubation for 3 h at RT on a shaker, or (b) samples without biotin were analyzed by adding 100 µL TBST containing the primary antibody as per the manufacturer's recommendation, incubating for 3 h at RT on a shaker, followed by washing the wells 4× with TBST. […] The reaction was stopped with 100 µL 2 M H2SO4 after incubating at RT for 0.5–15 min, resulting in a yellow color change, measured by absorbance at 450 nm. […] Statistical analysis was determined by the […] […] Data were expressed as the mean ± SD. […]
A general note: An ELISA detects its analyte on a solid surface through an enzyme-linked reagent.

Humanin [HN]: in the experiment with Aβ40, the “morphology of Aβ40” value was “from fibrillary to amorphous”.
On to heparan sulfate [HS], for which the “effect of HS on binding of HN to Aβ42” value with Aβ42 is “No effects”.
